{"source": "patent US7851142B2", "about": "“Method of reducing glycolysis in platelet concentrates using L-carnitine, alkanoyl carnitines and salts thereof” (priority 1997, dated 2010)", "key": {"[1]": {"system": "packed RBC (red cell concentrates)", "assay": "In vitro measurements on red cell concentrates stored in AS-3 with or without LC", "type": "cell-based, human", "settings": "AS-3 with 5 mM LC", "protocol": "Blood storage system. Standard CP2D/AS-3 system (Miles, Inc.) Using polyvinyl chloride (PVC) plastic with diethyl-(n)hexyl-phthalate (DEHP) as plasticizer was used. For each test unit, 245 mg LC (in 1.1 mL pure, pyrogen-free solution in a sterilized glass bottle) was added to the container holding the AS-3 additive solution to give a final concentration of 5 mM. For the control units, 1.1 mL 0.9% NaCl was added to the AS-3 solution using the same conditions. Addition of LC or saline to the bags was performed by injecting through a sampling site coupler with a syringe. This was done in a laminar flow hood under UV light.\nDonation & Processing. Standard phlebotomy and blood-drawing methods were used with collection of approximately 450±50 mL whole blood. The whole blood unit was held between 4-8 hours at room temperature before processing. The unit was centrifuged using standard conditions and, after centrifugation, the supernatant plasma was expressed off, and the sedimented packed RBC resuspended either in the standard AS-3 solution (control) or the carnitine-containing AS-3 solution (test). The suspended RBC units were stored at 4° C. for 42 days.\nIn Vitro Measurements: Measurements performed on pre-(0 day) and post-(42-day) samples included RBC ATP levels; total and supernatant hemoglobin; hematocrit (Hct); RBC, WBC, and platelet counts; RBC osmotic fragility; RBC morphology; lactate and glucose levels; supernatant potassium levels. These were performed using standard procedures as described previously, Heaton et al., Vox Sang 57:37-42 (1989).\nStatistical analysis. Paired t-test or routine non-parametric statistical analysis was performed on data from the in vivo and in vitro testing of the units to determine if there were any statistically significant differences (1-tail) in the means between the test and control units. Statistical significance was considered at a p value less than 0.05."}, "transfused stored RBC": {"system": "transfused stored RBC", "assay": "In vivo post-transfusion measurements of 42-day stored RBC (51Cr/99Tc labeling)", "design": "species or system human", "settings": "RBC stored 42 days with 5 mM LC, reinfused into donor", "text": "Subjects. The subject population was male or female research subjects between the ages of 18 to 65 years with no known mental or physical disability and taking no drugs that might affect RBC viability. Individuals were recruited who fulfilled the conventional allogeneic donor criteria as listed in the Code of Federal Register, Chapter 2, the Standards of the American Association of Blood Banks, and the Blood Services Directives of the American National Red Cross. The study was approved by the Institutional Review Board of the Medical College of Hampton Roads and the subjects gave informed consent prior to participation in the study.\nEach donor donated on two different occasions separated by 72 days, and was randomized to either the test or control arm on the first donation.\nIn vivo Post-transfusion Measurements. After 42 days of storage, a sample was withdrawn and the stored cells labeled with Cr using standard methods. At the same time, to determine RBC mass, a fresh sample was collected from the donor for RBC labeling with 99 Tc. After labeling, 15 μCi ^51Cr-labeled stored cells and 15 μCi ^99Tc-labeled fresh cells were mixed and simultaneously infused. Blood samples (5 mL) were taken after the infusion at various time intervals for up to 35 days to calculate 24-hour % recovery and survival. The 24-hour % recovery was determined using either the single label method where log-linear regression of the radioactivity levels of samples taken at 5, 7.5, 10, and 15 min. was used to determine 0 time level, or by the double label method using donor RBC mass as determined by the ^99Tc measurement.\nCirculating lifespan of the transfused surviving Cr-labeled RBC was determined by samples taken at 24 hours and then twice weekly for up to 5 weeks. The radioactivity levels were corrected for a constant 1% elution per day. The data were fitted to a linear function with post-transfusion days as independent variable (x-axis) and the corrected Cr counts as dependent variable (y-axis). The lifespan of the RBC was then taken as the intersection of the fitted line with the x-axis. […]"}, "stored RBC": {"system": "stored RBC", "assay": "Membrane complex lipid reacylation in stored RBC ([1-14C]palmitic acid incorporation)", "type": "cell-based, human", "protocol": "Analysis of membrane complex lipid reacylation in stored RBC. Blood sample was withdrawn from stored RCC unit through a sampling site coupler with a syringe, and the sample processed immediately. This was done in a laminar flow hood under UV light. All the manipulations were conducted at 0-5° C. unless noted. RBC were washed two times with 4 vol. of cold 0.9% NaCl. Isolated RBC were once again washed with incubation buffer (NaCl 120 mM, KCl 5 mM, MgSO4 1 mM, NaH2PO4 1 mM, saccharose 40 mM, 5 mM glucose, Tris-HCl 10 mM, at pH 7.4) and resuspended in the same buffer at a final hematocrit of 5%. A Rotabath shaking bath at 37° C. was used for the incubations. RBC were incubated with the radioactive palmitic acid (10 μM) complexed to fatty acid free BSA (1.65 mg/ml), Incubations were ended by washing cells once with cold incubation buffer, three times with fatty acid free BSA 1% in incubation buffer, and finally once again with incubation buffer. RBC lipids were extracted from intact cells with the Rose & Oaklander procedure, J. Lipid Res. 6: 428-431 (1965). In order to prevent lipid oxidation, 0.1% butylated hydroxytoluene was added to the lipid extracts. Aliquots of the lipid extract were used for determination of lipid phosphorus content, and analyzed by two dimensional thin layer chromatography. Briefly, the chromatograms were developed using chloroform-methanol-28% ammonia (65:25:5) in the first dimension. The chromatograms were then developed using chloroform-acetone-methanol-acetic acid-water (6:8:2:2:1) in the second dimension. Phosphatidylcholine (PC), a phosphatidylethanolamine (PE), and phosphatidylserine were visualized by brief exposure of the plates to iodine and identified using standards as a reference. Individual phospholipid spots were scraped off into vials containing scintillation fluid and radioactivity was determined by liquid scintillation counting. The identification and analysis of radioactive PLC was carried out as recently described, Arduini et al., J. Biol. Chem. 267: 12673-81 (1992). Counting efficiency was evaluated by an external standard. […]"}, "[2]": {"system": "coagulase negative staphylococci", "assay": "Bacterial growth in spiked extended-storage platelet concentrates", "type": "cell-based", "settings": "for Bacterial growth: platelet concentrate", "protocol": "Study Methods: Two ABO identical prestorage-leuko-reduced platelet concentrates produced by in line filtration of platelet rich plasma (MedSep Corp. Covina, Calif.) were pooled, then equally divided into two CLX® (MedSep) bags. Either LC, to a final concentration of 5 mM, or saline (control) was added to one of each pair. Each container was spiked with 1 ml of a coagulase negative staphylococcal suspension on Day 0 to a final concentration between 1-48 CFU/mL. Samples were removed from each container aseptically on Day 3, Day 6 and either Day 7 or Day 8 for colony count. Data were analyzed by paired t tests."}, "[3]": {"system": "prestorage-leuko-reduced platelet concentrates", "assay": "Extended storage of prestorage-leuko-reduced random platelets (glycolysis and platelet quality tests)", "type": "cell-based, human", "settings": "5 mM L-Carnitine, stored seven or eight days at 22° C.", "protocol": "Study Deign: Two ABO identical prestorage-leuko-reduced platelet concentrates produced by in-line filtration of platelet rich plasma (MedSep Inc., Corvina, Calif.) were pooled, then equally divided into two CLX (MedSep) containers. Either L-Carnitine (final concentration 5 mM) or saline was added to one bag of each pair of platelets. Platelets were stored for either seven or eight days at 22° C. on a flatbed agitator, then tested. Tests performed were pH, platelet count, supernatant glucose and lactate, surface p-selectin expression by flow cytometry, extent of shape change (ESC) and hypotonic shock response (HSR). Glucose consumption and lactate production were calculated as mM/10^12 platelets/day. Data were analyzed using paired t-tests."}, "[4]": {"system": "standard (non-leuko-reduced) platelet concentrates", "settings": "extended storage (>5 days; five-ten days); cited from earlier work"}}, "note": "“Also recorded” adds a separate entry of the source."}
{"compound": "C[N+](C)(C)C[C@H](O)CC(=O)[O-]", "note": "[L-Carnitine, L-carnitine]", "values": [{"measurement": "ATP", "setting": "[1]; post-storage, 42 days at 4° C.", "value": "3.24 ± 0.38", "unit": "μmol/g Hb"}, {"measurement": "Glucose", "setting": "[1]; post-storage, 42 days at 4° C.", "value": "193 ± 40", "unit": "mg/dL"}, {"measurement": "Hemolysis", "setting": "[1]; post-storage, 42 days at 4° C.", "value": "0.30 ± 0.22", "unit": "%"}, {"measurement": "Lactate", "setting": "[1]; post-storage, 42 days at 4° C.", "value": "199 ± 37", "unit": "mg/dL"}, {"measurement": "Morphological Score", "setting": "[1]; post-storage, 42 days at 4° C.", "value": "68 ± 15"}, {"measurement": "Osmotic Fragility", "setting": "[1]; post-storage, 42 days at 4° C.", "value": "50 ± 4", "unit": "%"}, {"measurement": "Supernatant K+", "setting": "[1]; post-storage, 42 days at 4° C.", "value": "60 ± 3", "unit": "mEq/L"}, {"measurement": "pH", "setting": "[1]; post-storage, 42 days at 4° C.", "value": "6.32 ± 0.04"}, {"measurement": "ATP", "setting": "[1]; pre-storage (0 day)", "value": "4.3 ± 0.4", "unit": "μmol/g Hb"}, {"measurement": "Osmotic Fragility", "setting": "[1]; pre-storage (0 day)", "value": "49 ± 4", "unit": "%"}, {"measurement": "Supernatant Hb", "setting": "[1]; pre-storage (0 day)", "value": "26 ± 8", "unit": "mg/dL"}, {"measurement": "Supernatant K+", "setting": "[1]; pre-storage (0 day)", "value": "2.2 ± 0.3", "unit": "mEq/L"}, {"measurement": "24 Hr % Recovery (single label)", "setting": "transfused stored RBC", "value": "84.0 ± 4.4", "unit": "%"}, {"measurement": "24 Hr Recovery (double label)", "setting": "transfused stored RBC", "value": "83.9 ± 5.0"}, {"measurement": "Survival (circulating lifespan of infused stored RBC)", "setting": "transfused stored RBC", "value": "96.1 ± 11.2", "unit": "days"}, {"measurement": "Radioactive palmitate incorporation into membrane PE", "setting": "stored RBC; RBC stored in LC-containing AS-3, over storage up to 42 days", "value": "sudden increase of PE reacylation toward the end of the storage"}, {"measurement": "Radioactive palmitate incorporated into PLC (palmitoyl-L-carnitine)", "setting": "stored RBC; RBC stored in LC-containing AS-3, over storage up to 42 days, listed as LC", "value": "initial increase (with a nadir at the 3 week) followed by a rapid decrease; also recorded: greater than that found in red cells stored without LC"}, {"measurement": "Radioactive palmitate incorporation into membrane PC", "setting": "stored RBC; RBC stored in LC-containing AS-3 vs AS-3 alone, over storage", "value": "no differences were observed between the two red cell preparations"}, {"measurement": "Bacterial growth", "setting": "[2]; Day 0, 5 mM L-Carnitine", "value": "1.12 ± 0.7", "unit": "Log CFU/ml"}, {"measurement": "Bacterial growth", "setting": "[2]; Day 3, 5 mM L-Carnitine", "value": "3.04 ± 0.7", "unit": "Log CFU/ml"}, {"measurement": "Bacterial growth", "setting": "[2]; Day 6, 5 mM L-Carnitine", "value": "3.88 ± 1.0", "unit": "Log CFU/ml"}, {"measurement": "Growth relative to controls", "setting": "[2]; Day 7/8, 5 mM L-Carnitine", "value": 33, "unit": "%"}, {"measurement": "Bacterial growth", "setting": "[2]; Day 7/8, 5 mM L-Carnitine", "value": "4.60 ± 1.5", "unit": "Log CFU/ml"}, {"measurement": "ESC (extent of shape change)", "setting": "[3]", "value": "12 ± 4", "unit": "%"}, {"measurement": "Glucose concentration", "setting": "[3]", "value": "1.13 ± 0.2"}, {"measurement": "HSR (hypotonic shock response)", "setting": "[3]", "value": "50 ± 22", "unit": "%"}, {"measurement": "Lactate production", "setting": "[3]", "value": "1.50 ± 0.2", "unit": "mM/10^12 platelets/day"}, {"measurement": "pH", "setting": "[3]", "value": "7.09 ± 0.1"}, {"measurement": "P-selectin (% positive)", "setting": "[3]; flow cytometry", "value": "69 ± 9", "unit": "%"}, {"measurement": "Effect on glycolysis in stored platelet concentrates", "setting": "[4]", "value": "reduces glycosis; also recorded: reduces glycolysis"}]}
